Measurements reported in PubChem BioAssay (NCI).
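A five-concentration, 48-hour dose response in 96-well plates underlies each endpoint, interpolated linearly between surrounding concentrations. GI50 = concentration required for 50% inhibition of growth. The concentration for full growth arrest is given as TGI.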

How the values were obtained:
Test in all cases: NCI-60 cell line screen, 48 h
A498 renal = test system: A498 renal
RPMI-8226 leukemia = test system: RPMI-8226 leukemia
T-47D breast = test system: T-47D breast
K-562 leukemia = test system: K-562 leukemia
SK-MEL-2 melanoma = test system: SK-MEL-2 melanoma
BT-549 breast = test system: BT-549 breast
OVCAR-4 ovarian = test system: OVCAR-4 ovarian
SK-MEL-28 melanoma = test system: SK-MEL-28 melanoma
SF-268 CNS = test system: SF-268 CNS
MDA-MB-231 breast = test system: MDA-MB-231 breast
SK-OV-3 ovarian = test system: SK-OV-3 ovarian
HOP-92 NSCLC = test system: HOP-92 NSCLC
RXF 393 renal = test system: RXF 393 renal
A549 NSCLC = test system: A549 NSCLC
SN12C renal = test system: SN12C renal
OVCAR-3 ovarian = test system: OVCAR-3 ovarian
OVCAR-8 ovarian = test system: OVCAR-8 ovarian
M14 melanoma = test system: M14 melanoma
NCI/ADR-RES ovarian = test system: NCI/ADR-RES ovarian
DU-145 prostate = test system: DU-145 prostate
NCI-H460 lung = test system: NCI-H460 lung
SK-MEL-5 melanoma = test system: SK-MEL-5 melanoma
CAKI-1 renal = test system: CAKI-1 renal
CCRF-CEM leukemia = test system: CCRF-CEM leukemia
UO-31 renal = test system: UO-31 renal
HT29 colon = test system: HT29 colon
KM12 colon = test system: KM12 colon
SF-295 CNS = test system: SF-295 CNS
EKVX NSCLC = test system: EKVX NSCLC
UACC-257 melanoma = test system: UACC-257 melanoma
NCI-H23 lung = test system: NCI-H23 lung
IGROV1 ovarian = test system: IGROV1 ovarian
COLO 205 colon = test system: COLO 205 colon
MDA-MB-435 = test system: MDA-MB-435
MALME-3M melanoma = test system: MALME-3M melanoma
LOX IMVI melanoma = test system: LOX IMVI melanoma
HS 578T breast = test system: HS 578T breast
SW-620 colon = test system: SW-620 colon
ACHN renal = test system: ACHN renal
SNB-75 CNS = test system: SNB-75 CNS
MOLT-4 leukemia = test system: MOLT-4 leukemia
HCT-116 colon = test system: HCT-116 colon
PC-3 prostate = test system: PC-3 prostate
SNB-19 CNS = test system: SNB-19 CNS
HCC-2998 colon = test system: HCC-2998 colon
NCI-H522 lung = test system: NCI-H522 lung
786-0 renal = test system: 786-0 renal
SF-539 CNS = test system: SF-539 CNS
HL-60(TB) leukemia = test system: HL-60(TB) leukemia
MCF7 breast = test system: MCF7 breast
NCI-H226 lung = test system: NCI-H226 lung
OVCAR-5 ovarian = test system: OVCAR-5 ovarian
TK-10 renal = test system: TK-10 renal
UACC-62 melanoma = test system: UACC-62 melanoma
MDA-MB-468 breast = test system: MDA-MB-468 breast
HCT-15 colon = test system: HCT-15 colon
SR leukemia = test system: SR leukemia
HOP-62 NSCLC = test system: HOP-62 NSCLC
U251 CNS = test system: U251 CNS

Which results are given for `COc1ccc(C(=O)COc2ccc(NC(=O)Nc3ccc(Cl)c(C(F)(F)F)c3)cc2)cc1`?
GI50 (A498 renal): 2740 nM; TGI (A498 renal): 9.86 µM; GI50 (RPMI-8226 leukemia): 3.45 µM; TGI (RPMI-8226 leukemia): > 100 µM; GI50 (T-47D breast): 3.06 µM; TGI (T-47D breast): 92.3 µM; GI50 (K-562 leukemia): 4.92 µM; TGI (K-562 leukemia): > 100 µM; GI50 (SK-MEL-2 melanoma): 2860 nM; TGI (SK-MEL-2 melanoma): 34.4 µM; GI50 (BT-549 breast): 4.38 µM; TGI (BT-549 breast): 40.8 µM; GI50 (OVCAR-4 ovarian): 2870 nM; TGI (OVCAR-4 ovarian): 17.9 µM; GI50 (SK-MEL-28 melanoma): 3.39 µM; TGI (SK-MEL-28 melanoma): 33.9 µM; GI50 (SF-268 CNS): 4.04 µM; TGI (SF-268 CNS): > 100 µM; GI50 (MDA-MB-231 breast): 3.81 µM; TGI (MDA-MB-231 breast): 26.1 µM; GI50 (SK-OV-3 ovarian): 8.07 µM; TGI (SK-OV-3 ovarian): > 100 µM; GI50 (HOP-92 NSCLC): 3.08 µM; TGI (HOP-92 NSCLC): 10 µM; GI50 (RXF 393 renal): 4.29 µM; TGI (RXF 393 renal): 15.3 µM; GI50 (A549 NSCLC): 3.2 µM; TGI (A549 NSCLC): > 100 µM; GI50 (SN12C renal): 4.8 µM; TGI (SN12C renal): > 100 µM; GI50 (OVCAR-3 ovarian): 3.3 µM; TGI (OVCAR-3 ovarian): > 100 µM; GI50 (OVCAR-8 ovarian): 4.21 µM; TGI (OVCAR-8 ovarian): > 100 µM; GI50 (M14 melanoma): 2720 nM; TGI (M14 melanoma): > 100 µM; GI50 (NCI/ADR-RES ovarian): 3.69 µM; TGI (NCI/ADR-RES ovarian): > 100 µM; GI50 (DU-145 prostate): 5.78 µM; TGI (DU-145 prostate): > 100 µM; GI50 (NCI-H460 lung): 3.34 µM; TGI (NCI-H460 lung): > 100 µM; GI50 (SK-MEL-5 melanoma): 3.14 µM; TGI (SK-MEL-5 melanoma): 19.7 µM; GI50 (CAKI-1 renal): 4.36 µM; TGI (CAKI-1 renal): > 100 µM; GI50 (CCRF-CEM leukemia): 3.71 µM; TGI (CCRF-CEM leukemia): > 100 µM; GI50 (UO-31 renal): 3.75 µM; TGI (UO-31 renal): > 100 µM; GI50 (HT29 colon): 4.49 µM; TGI (HT29 colon): > 100 µM; GI50 (KM12 colon): 2880 nM; TGI (KM12 colon): 8.71 µM; GI50 (SF-295 CNS): 3.35 µM; TGI (SF-295 CNS): 25.9 µM; GI50 (EKVX NSCLC): 3.15 µM; TGI (EKVX NSCLC): 16.6 µM; GI50 (UACC-257 melanoma): 2950 nM; TGI (UACC-257 melanoma): > 100 µM; GI50 (NCI-H23 lung): 4.52 µM; TGI (NCI-H23 lung): > 100 µM; GI50 (IGROV1 ovarian): 6 µM; TGI (IGROV1 ovarian): > 100 µM; GI50 (COLO 205 colon): 3.08 µM; TGI (COLO 205 colon): > 100 µM; GI50 (MDA-MB-435): 3.63 µM; TGI (MDA-MB-435): > 100 µM; GI50 (MALME-3M melanoma): 2840 nM; TGI (MALME-3M melanoma): 18.2 µM; GI50 (LOX IMVI melanoma): 3.2 µM; TGI (LOX IMVI melanoma): > 100 µM; GI50 (HS 578T breast): 2890 nM; TGI (HS 578T breast): 9.97 µM; GI50 (SW-620 colon): 5.3 µM; TGI (SW-620 colon): > 100 µM; GI50 (ACHN renal): 3.35 µM; TGI (ACHN renal): > 100 µM; GI50 (SNB-75 CNS): 1670 nM; TGI (SNB-75 CNS): 14.3 µM; GI50 (MOLT-4 leukemia): 2840 nM; TGI (MOLT-4 leukemia): > 100 µM; GI50 (HCT-116 colon): 3.87 µM; TGI (HCT-116 colon): > 100 µM; GI50 (PC-3 prostate): 3.08 µM; TGI (PC-3 prostate): > 100 µM; GI50 (SNB-19 CNS): 3.86 µM; TGI (SNB-19 CNS): 22.7 µM; GI50 (HCC-2998 colon): 3.8 µM; TGI (HCC-2998 colon): 34.2 µM; GI50 (NCI-H522 lung): 2960 nM; TGI (NCI-H522 lung): > 100 µM; GI50 (786-0 renal): 4.57 µM; TGI (786-0 renal): 24.5 µM; GI50 (SF-539 CNS): 4.12 µM; TGI (SF-539 CNS): 26.4 µM; GI50 (HL-60(TB) leukemia): 3.09 µM; TGI (HL-60(TB) leukemia): 22.7 µM; GI50 (MCF7 breast): 2600 nM; TGI (MCF7 breast): > 100 µM; GI50 (NCI-H226 lung): 3.61 µM; TGI (NCI-H226 lung): 21 µM; GI50 (OVCAR-5 ovarian): 5.24 µM; TGI (OVCAR-5 ovarian): > 100 µM; GI50 (TK-10 renal): 7.9 µM; TGI (TK-10 renal): > 100 µM; GI50 (UACC-62 melanoma): 2790 nM; TGI (UACC-62 melanoma): 9.38 µM; GI50 (MDA-MB-468 breast): 2800 nM; TGI (MDA-MB-468 breast): 8.67 µM; GI50 (HCT-15 colon): 3.09 µM; TGI (HCT-15 colon): > 100 µM; GI50 (SR leukemia): 3.13 µM; TGI (SR leukemia): > 100 µM; GI50 (HOP-62 NSCLC): 6.69 µM; TGI (HOP-62 NSCLC): 96.4 µM; GI50 (U251 CNS): 3.71 µM; TGI (U251 CNS): 26.1 µM
